For 10 molecules, EC50 results are on record in patent publication US8912195B2, “Alkyl amides as HIV attachment inhibitors” (priority 2010, dated 2014).

Read-outs that look alike come from different tables or passages of the source.

The assay deals with single-round infectious reporter virus with HIV-1 LAI envelope. Kind of assay: Single-round infectious HIV-1 LAI luciferase reporter virus infection of MT2 cells. Particulars: Human immunodeficiency virus 1, MT2, 72 h. Type of assay: cell-based. An excerpt:
• Virus production—Human embryonic Kidney cell line, 293T (HEK 293T), was propagated in Dulbecco's Modified Eagle Medium (Invitrogen, Carlsbad, Calif.) containing 10% fetal Bovine serum (FBS, Sigma, St. Louis, Mo.). The human T-cell leukemia cell MT2 (AIDS Research and Reference Reagent Program, Cat. 237) was propagated in RPMI 1640 (Invitrogen, Carlsbad, Calif.) containing 10% fetal bovine serum (FBS, Hyclone, Logan, Utah) • Virus infection—Single-round infectious reporter virus was produced by co-transfecting HEK 293T cells with plasmide expressing the HIV-1 LAI envelope along with a plasmid containing an HIV-1 LAI proviral cDNA with the envelope gene replaced by a firefly luciferase reporter gene (Chen et al, Ref 41). Transfections were performed using lipofectAMINE PLUS reagent as described by the manufacturer (Invitrogen, Carlsbad, Calif.).
• 1. MT2 cells were plated in black, 384 well plates at a cell density of 5×10^3 cells per well in 25 μl RPMI 1640 containing 10% FBS. • 2. Compound (diluted in dimethylsulfoxide and growth medium) was added to cells at 12.5 μl/well, so that the final assay concentration would be ≦50 nM. • 3. 12.5 μl of single-round infectious reporter virus in Dulbecco's Modified Eagle Medium was added to the plated cells and compound at an approximate multiplicity of infection (MOI) of 0.01, resulting in a final volume of 50 μl per well. • 4. Virus-infected cells were incubated at 37 degrees Celsius, in a CO2 incubator, and harvested 72 h after infection. • 5. Viral infection was monitored by measuring luciferase expression in the infected cells using a luciferase reporter gene assay kit (Steady-Glo, Promega, Madison, Wis.) as described by the manufacturer. Luciferase activity was then quantified by measuring luminescence using an EnVision Multilabel Plate Readers (PerkinElmer, Waltham, Mass.). • 6. The percent inhibition for each compound was calculated by quantifying the level of luciferase expression in cells infected in the presence of each compound as a percentage of that observed for cells infected in the absence of compound and subtracting such a determined value from 100. • 7. An EC50 provides a method for comparing the antiviral potency of the compounds of this disclosure. The effective concentration for fifty percent inhibition (EC50) was calculated with the Microsoft Excel Xlfit curve fitting software. For each compound, curves were generated from percent inhibition calculated at 10 different concentrations by using a four paramenter logistic model (model 205). Table 1 is the key for the data in Table 2.

The mark [1] stands for this setting: read-out: EC50 Group from Table 1.

As for `CCCCCC(=O)N1CCN(C(=O)C(=O)c2c[nH]c3c(-n4ccnn4)ncc(F)c23)CC1` [Compound 2042], the EC50 (usually the concentration giving half of the maximal effect) under setting [1] was below 500 nM. Still for that read-out and setting: the result for `O=C(C(=O)N1CCN(C(=O)CCC2CCCC2)CC1)c1c[nH]c2c(-n3ccnn3)ncc(F)c12` [Compound 2043] reads below 500 nM; that for `COCC(=O)N1CCN(C(=O)C(=O)c2c[nH]c3c(-n4ccnn4)ncc(F)c23)CC1` [Compound 2044], below 500 nM. The same measure, in the same setting: the result for `CN(C)CC(=O)N1CCN(C(=O)C(=O)c2c[nH]c3c(-n4ccnn4)ncc(F)c23)CC1` [Compound 2045] reads above 500 nM. Turning to `CCC(=O)N1CCN(C(=O)C(=O)c2c[nH]c3c(-n4ccnn4)ncc(F)c23)CC1` [Compound 2046], the response was half-maximal at 6.88 nM (EC50). Under setting [1], the EC50 was below 500 nM.

Regarding `COCCOCC(=O)N1CCN(C(=O)C(=O)c2c[nH]c3c(-n4ccnn4)ncc(F)c23)CC1` [Compound 2047], the concentration for a half-maximal effect (EC50) under setting [1] was above 500 nM. Same read-out and setting: the result for `COCC(=O)N1CCN(C(=O)C(=O)c2c[nH]c3c(-n4cnc(C)n4)ncc(OC)c23)CC1` [Compound 2048] reads below 500 nM. For `COc1cnc(-n2cnc(C)n2)c2[nH]cc(C(=O)C(=O)N3CCN(C(=O)CN(C)C)CC3)c12` [Compound 2049], the concentration giving a half-maximal response (EC50) under setting [1] is above 500 nM. As for `CCC(=O)N1CCN(C(=O)C(=O)c2c[nH]c3c(-n4cnc(C)n4)ncc(OC)c23)CC1` [Compound 2050], the EC50 was determined as 10.4 nM. Further, the half-maximal effective concentration (EC50) under setting [1] is below 500 nM. In the case of `COCCOCC(=O)N1CCN(C(=O)C(=O)c2c[nH]c3c(-n4cnc(C)n4)ncc(OC)c23)CC1` [Compound 2051], the concentration for a half-maximal effect (EC50) under setting [1] is above 500 nM.
